Columns and labels:
[1] = target: T1, GST-MKK3 and full-length VF-MYC interaction (Homo sapiens, UniProt P46734); assay: dose-response cell lysate-based TR-FRET assay; type: binding; conditions: for inhibition of MKK3-MYC PPI in dose-response TR-FRET: up to 100 µM compound
T1 sequence (P46734 1-347): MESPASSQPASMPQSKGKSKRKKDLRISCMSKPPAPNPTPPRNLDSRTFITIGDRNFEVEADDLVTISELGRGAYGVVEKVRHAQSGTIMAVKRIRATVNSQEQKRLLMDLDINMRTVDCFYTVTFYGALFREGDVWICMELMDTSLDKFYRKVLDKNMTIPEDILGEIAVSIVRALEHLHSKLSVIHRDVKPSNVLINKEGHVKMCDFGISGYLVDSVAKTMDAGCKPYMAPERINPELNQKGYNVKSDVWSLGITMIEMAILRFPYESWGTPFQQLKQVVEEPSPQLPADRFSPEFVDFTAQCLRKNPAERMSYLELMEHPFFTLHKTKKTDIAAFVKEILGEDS

[2] = tested on: MYC, CDK4 and PD-L1 level in HCT116 cells; assay: Western blot of MYC and MYC-target genes; type: cell-based; conditions: RG108 up to 10 µM
[3] = tested on: MYC transcriptional activity in HCT116 cells; assay: luciferase-based MYC reporter assay; type: cell-based; conditions: HCT116 cells expressing VF-MKK3; 0.5 to 5 µM, 12 hours
[4] = tested on: MYC transcriptional activity in MDA-MB-468 cells; assay: luciferase-based MYC reporter assay; type: cell-based; conditions: MDA-MB-468 cells expressing VF-MKK3; 0.5 to 5 µM, 12 hours
[5] = tested on: phosphorylation of MKK3 substrate p38 in HEK293T cells; assay: p38 phosphorylation in compound-treated cells; type: cell-based; conditions: HEK293T cells incubated with compound
MKK3-p38 PPI = target: T2, MKK3-p38 PPI (Homo sapiens, UniProt P46734); assay: GST pull-down PPI inhibition assay, compound-treated HEK293T lysates; type: binding; conditions: up to 50 µM
T2 sequence (P46734 1-347): T1 sequence (P46734 1-347)

MYC-MAX PPI = MYC-MAX PPI (Homo sapiens, UniProt P01106); assay: as above; type: binding; conditions: up to 50 µM
MYC-MAX PPI, sequence (P01106 16-454): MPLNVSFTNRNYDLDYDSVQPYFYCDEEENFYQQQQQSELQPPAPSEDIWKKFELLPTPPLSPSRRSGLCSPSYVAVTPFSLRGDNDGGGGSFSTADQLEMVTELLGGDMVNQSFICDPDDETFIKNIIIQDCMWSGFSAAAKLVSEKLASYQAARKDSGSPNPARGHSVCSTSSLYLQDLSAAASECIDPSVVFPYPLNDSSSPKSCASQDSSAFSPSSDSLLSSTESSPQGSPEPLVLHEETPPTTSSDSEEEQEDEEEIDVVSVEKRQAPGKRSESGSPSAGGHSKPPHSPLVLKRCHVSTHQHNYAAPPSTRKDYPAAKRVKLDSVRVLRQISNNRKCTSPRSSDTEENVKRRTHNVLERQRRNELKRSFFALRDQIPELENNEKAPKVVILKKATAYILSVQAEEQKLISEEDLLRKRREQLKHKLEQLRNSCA

[6] = target: T3, GST-MKK3 association with endogenous MYC in HCT116 cells (Homo sapiens, UniProt P46734); assay: GST pull-down from compound-treated cells; type: cell-based; conditions: HCT116 cells treated with increased concentration
T3 sequence (P46734 1-347): T1 sequence (P46734 1-347)

[7] = tested on: MYC level in MDA-MB-468 cells; assay: Western blot of MYC level; type: cell-based; conditions: increasing concentration
Renilla luciferase = assay: luciferase interference control; type: cell-based; conditions: cells treated with 10 µM, vs DMSO control
MKK3-MYC PPI = target: T4, MKK3-MYC PPI (Homo sapiens, UniProt P46734); assay: GST pull-down PPI inhibition assay, compound-treated HEK293T lysates; type: binding; conditions: lysates treated with 50 µM
T4 sequence (P46734 1-347): T1 sequence (P46734 1-347)

Structure (SMILES) | inhibition of MKK3-MYC PPI in dose-response TR-FRET [1] | level of MYC and MYC-target genes (CDK4, PD-L1) [2] | MKK3-induced MYC transcriptional activity, reporter assay [3] | MKK3-induced MYC transcriptional activity, reporter assay [4] | phosphorylation of MKK3 substrate p38 [5] | suppression of MKK3-p38 PPI in GST pull-down (MKK3-p38 PPI) | suppression of MYC-MAX PPI in GST pull-down (MYC-MAX PPI) | association of GST-MKK3 with endogenous MYC [6] | IC50 [1] [µM] | MYC level [7] | Renilla luciferase activity (Renilla luciferase) | inhibition of MKK3-MYC PPI in GST pull-down (MKK3-MYC PPI)
O=C(O)[C@H](Cc1c[nH]c2ccccc12)N1C(=O)c2ccccc2C1=O [RG108] | does not interfere | did not suppress | not suppressed |  |  |  |  |  |  |  |  | 
Cc1cc2c(C(C)C)c(O)c(O)c(C=O)c2c(O)c1-c1c(C)cc2c(C(C)C)c(O)c(O)c(C=O)c2c1O [AT101, (−)-1,1’,6,6’,7,7’-Hexahydroxy-3,3’-dimethyl-5,5’-bis(1-methylethyl)-[2,2’-binaphthalene]-8,8’dicarboxaldehyde] | did not demonstrate detectable inhibition |  |  |  |  |  |  |  |  |  |  | 
Cc1cc(Nc2ccc(NC(=O)c3ccc(Nc4ccnc5ccccc45)cc3)cc2)nc(N)n1 [SGI-1027, N-[4-[(2-Amino-6-methylpyrimidin-4-yl)amino]phenyl]-4-(quinolin-4-ylamino)benzamide] |  | substantial decrease | diminished | diminished | did not decrease | did not observe a significant suppression | did not observe a significant suppression | decreased association | 8 | decreased proportionally | did not observe a decrease | confirmed the inhibition

Source: publication PMC8456368 (Bioorganic & medicinal chemistry, 2021)
